Test results from patent US20230256051A1, “MODIFIED KISSPEPTIN RECEPTOR AGONISTS FOR FATTY LIVER DISEASE” (priority 2020, published 2023).
Entries after “also recorded” stand apart in the source; their conditions may differ. No end group written: not given here.

Assays:
KISS1R [1] = target: T1, KISS1R (Homo sapiens, UniProt Q969F8); design: expressed in transfected cells; host or cells: CHO (CHO-KISS1R), membrane preparations; details: CHO-KISS1R membrane preparations; means +/- SE; n = 3-5; read-out: IC50 against [125I]KP-54 binding to KISS1R; cited from earlier work
Target sequence in this assay (Q969F8 whole entry, species assumed): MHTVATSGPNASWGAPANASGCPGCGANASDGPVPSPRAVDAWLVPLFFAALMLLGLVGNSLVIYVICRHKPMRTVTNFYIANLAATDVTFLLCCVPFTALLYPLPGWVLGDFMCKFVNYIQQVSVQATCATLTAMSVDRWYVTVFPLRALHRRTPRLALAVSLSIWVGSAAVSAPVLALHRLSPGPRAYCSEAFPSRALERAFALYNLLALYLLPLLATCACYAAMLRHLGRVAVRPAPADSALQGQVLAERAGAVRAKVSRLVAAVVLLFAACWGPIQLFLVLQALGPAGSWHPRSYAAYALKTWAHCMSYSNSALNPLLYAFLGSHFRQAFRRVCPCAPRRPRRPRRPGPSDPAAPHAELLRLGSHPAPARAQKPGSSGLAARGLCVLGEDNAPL

KISS1R [2] = target: T1, KISS1R; design: expressed in transfected cells; host or cells: CHO cells; details: [Ca2+] increasing activity, CHO cells expressing human KISS1R; (95% confidence interval); read-out: Agonist activity EC50; cited from earlier work
Target sequence in this assay (Q969F8 whole entry): as the sequence (Q969F8 whole entry, species assumed) above

[3] = system: primary mouse hepatocytes; assay: FFA-loaded isolated primary mouse hepatocytes treated with KP-10 or TAK
Description: (n=4) * p < 0.05; One-way ANOVA followed by Dunnett’s post-hoc test.
Primary hepatocytes from mice were isolated according to known methods. Mice (wild-type, C57BL6) or LKO and littermate controls were anesthetized using a ketamine/xylazine mixture (Henry Schein™). The liver was cannulated via the hepatic portal vein and first perfused with 37° C. Kreb’s Ringer solution containing EGTA for 10 minutes. After the first wash, a second Kreb’s Ringer solution containing CaCl2 and LIBERASE (Roche™) was used until the liver was thoroughly perfused. Hepatocytes were filtered through a gauze mesh and resuspended in William’s Media E (Sigma™) with 10 % FBS (Sigma™), 200 nM dexamethasone (Sigma™), 5 mM pen/strep (Fisher™), 2 mM L-glutamine (Fisher™). Cells were plated at a density of 3 × 10^5 on 6-well collagen-coated plates (Sigma™). Hepatocytes were left to recover overnight and then were serum starved for 3 hours prior to experiments. For free fatty acid (FFA) loading, 150 µM oleic and 150 µM palmitic acid was conjugated with 2% BSA (0.3 mM).

healthy men = details: cited from earlier work
[4] = system: HFD-fed C57BL6/J mice (mouse model of NAFLD); assay: Diet-induced (HFD) mouse model of NAFLD, TAK-448 infused by subcutaneous mini-osmotic pump; assay type: in vivo; details: for liver steatosis / lipid accumulation (H&E, Oil Red O): 0.3 nmol/hour s.c. mini-osmotic pump, vs vehicle (PBS); for liver steatosis / lipid accumulation (H&E, Oil Red O) / insulin resistance / sensitivity (ITT) / glucose tolerance (GTT) / fasting glucose / body weight: 4 weeks; for insulin resistance / sensitivity (ITT) / glucose tolerance (GTT) / fasting glucose / body weight: 0.3 nmol/hour s.c. pump; for insulin resistance / sensitivity (ITT): 6 h fast, insulin 0.5 U/kg i.p.; for glucose tolerance (GTT): 12 h fast, D-glucose 1 g/kg i.p.; for liver triglycerides (TGs) / serum/blood glycerol: endpoint
Description: Animals were treated for 4 weeks unless otherwise indicated and maintained on RD or HFD (total of 10 weeks). Blood glucose measurements were obtained via a small nick in the lateral tail vein using a glucometer (Bayer ContourTM). For glucose tolerance tests, mice were fasted for 12 hours and then injected intraperitoneally with D-glucose (1 g/kg). For the insulin tolerance tests, mice were fasted for 6 hours and then injected intraperitoneally with insulin (0.5 U/kg; Novo NordiskTM). Mice where individually housed in an 8-chamber Clinical Laboratory Animal Monitoring System (CLAMS) with controlled light and feeding. Carbon dioxide output, oxygen update, respiratory exchange ratio (RER), ambulatory movement, and feeding were measured over a 4-day period. Serum insulin levels were measured using the Ultra-Sensitive Mouse Insulin ELISA Kit (Crystal ChemTM). Serum glycerol levels were measured using the Glycerol Assay Kit (SigmaTM). Liver triglycerides were measured using the triglyceride quantification kit (MBLTM international Catalog # JM-K622-500). Free fatty acids were measured using the Free Fatty Acid Quantification Kit (SigmaTM, […]). ALT levels were measured using Liquid ALT (SGPT) Reagent set according to the manufacturer's instructions; cholesterol levels were measured using the Cholesterol set according to the manufacturer's instructions. Immunoblot assays were conducted according to known methods. Mouse liver tissue or primary hepatocytes were homogenized in RIPA lysis buffer containing protease inhibitors and centrifuged at 4° C.; the protein expression in lysates was analyzed by Western blot analysis. Protein was separated using SDS-PAGE and probed using the following antibodies: […] Mouse anti-β actin (1:5000, Thermo Fisher ScientificTM) or anti-vinculin (1:1000, Bio-RadTM) were used for loading control. Protein was then incubated for 1 hour in horseradish peroxidase (HRP)-conjugated rabbit (1:2500, Cell Signaling TechnologyTM) or mouse (1:2500, Cell Signaling TechnologyTM) secondary antibody. Blots were imaged by chemiluminescence with ChemiDocTM Touch imaging system (Bio-RadTM), SuperSignal and West Dura Extended Duration Substrate (Thermo ScientificTM). Protein levels were quantified using Image Lab Software (Bio-RadTM). Total RNA was extracted from cells using the Trizol method. Reverse transcription was done according to manufacturer's instructions using iScript RT Supermix (Bio-RadTM). Gene expression was determined using SYBR green real-time qPCR (RT-qPCR) as described previously using primers shown in Table 7, below. The following primers were purchased from BioRadTM (validated […] primers): Srebpl, Aqp3, Aqp9, Gpat2, Agpat2, Dgat1, Dgat2, Mogat1, Slc2a2, […]1, Sod1, Sod2, Gss, Ucp2, and Gpam. Il-13 was purchased from QiagenTM (QT00099554). Primers for Srebf1, Aqp3, Aqp9, Gpat2, Agpat2, Dgat1, Dgat2, Mogat1, Slc2a2, Lgpat1, Sod1, Sod2, Gss, Ucp2, and Gpam are pre-made and were purchased from BioRadTM. Liver tissue was immediately fixed in 10% neutral formalin after mice were euthanized. Tissue was processed for histology by the Research Pathology Services at Rutgers University. Livers were sectioned into 5 μm thick sections and stained with hematoxylin and eosin. Sections were examined by light microscopy for histopathological changes. C57BL/6J mice fed high fat diet (HFD) or control regular diet (RD) for 12 weeks (4-5/group). TAK-448 (TAK) or Vehicle (Veh i.e., PBS controls) were administered for 4 weeks using an ALZET mini-osmotic pump implanted subcutaneously. Steatosis is shown by hematoxylin and eosin stained mouse livers (lipid accumulation, small white droplets, arrowheads) and by Oil Red O staining of lipids (red dots) in control livers (FIG. 1A). This was prevented in the TAK-448 treated group (FIG. 1A). […]

[5] = cited from earlier work
[6] = HFD livers, RT-qPCR, vs vehicle
[7] = HFD livers, RT-qPCR, vs vehicle, listed as TAK
[8] = HFD livers, western blot, vs vehicle
[9] = HFD mice, vs vehicle, listed as TAK
[10] = HFD mice, 4 weeks treatment, vs vehicle
[11] = HFD mice, 4 weeks treatment, vs vehicle, listed as TAK
[12] = HFD mice, 4 weeks treatment, vs vehicle, listed as TAK-488
[13] = treated vs untreated mice, 4 weeks post treatment

## ANWNSFGLRF [ANA1]
KISS1R [1]
  IC50: 23.2 ± 14.3 nM

## Ac-YNWNSFGT[Tz]LR[Me]Y-NH2 [Compound 7**, Decourt et al., 2016 numbering]
KISS1R [2]
  EC50: 1.5 nM

## Palm-γ-DYNWNSFGT[Tz]LR[Me]Y-NH2 [Compound 6**, Decourt et al., 2016 numbering]
KISS1R [2]
  EC50: 0.17 nM

## YNWNSFGLRF [Kisspeptin-10]
[3]; primary mouse hepatocytes, treatment for 8 hours, RT-qPCR
  expression of de novo lipogenic genes: reduced
[3]; primary mouse hepatocytes, western blot, n=4
  phosphorylation of AMPK and its downstream target ACC: stimulated phosphorylation

## YNWNSFGLRH [ANA18]
KISS1R [1]
  IC50: 378 ± 266 nM

## YAWNSFGLRF [ANA2]
KISS1R [1]
  IC50: 145 ± 138 nM

## YNWNSFGLRY [Compound 2**, Decourt et al., 2016 numbering]
KISS1R [2]
  EC50: 0.057 nM

## YNWNSAGLRF [ANA6]
KISS1R [1]
  IC50: 110 ± 89.8 nM

## YNWNSFGIRF [ANA 16]
KISS1R [1]
  IC50: 39.9 ± 8.1 nM

## YNWNSFALRF [ANA7]
KISS1R [1]
  IC50: 4.6 ± 1.5 nM

## YNWNAFGLRF [ANA5]
KISS1R [1]
  IC50: 0.8 ± 0.4 nM

## Gly-Thr-Ser-Leu-Ser-Pro-Pro-Pro-Glu-Ser-Ser-Gly-Ser-Arg-Gln-Gln-Pro-Gly-Leu-Ser-Ala-Pro-His-Ser-Arg-Gln-Ile-Pro-Ala-Pro-Gln-Gly-Ala-Val-Leu-Val-Gln-Arg-Glu-Lys-Asp-Leu-Pro-Asn-Tyr-Asn-Trp-Asn-Ser-Phe-Gly-Leu-Arg-Phe-NH2 (GTSLSPPPESSGSRQQPGLSAPHSRQIPAPQGAVLVQREKDLPNYNWNSFGLRF-NH2) [Kisspeptin-54]
Healthy men
  food intake or appetite: without altering
  insulin secretion: enhance

## YNWNSFGARF [ANA8]
KISS1R [1]
  IC50: 77.4 ± 10 nM

## FNWNSFGLRF [ANA11]
KISS1R [1]
  IC50: 3.5 ± 2.1 nM

## CNC(=N)NCCC[C@H](NC(=O)[C@H](CC(C)C)NC(=O)NNC(=O)[C@H](Cc1ccccc1)NC(=O)[C@@H](NC(=O)[C@H](CC(N)=O)NC(=O)[C@@H]1C[C@@H](O)CN1C(=O)[C@@H](Cc1ccc(O)cc1)NC(C)=O)[C@@H](C)O)C(=O)N[C@@H](Cc1c[nH]c2ccccc12)C(N)=O.O=C(O)C(F)(F)F [TAK-448]
[4]; HFD livers, RT-qPCR and western blot, vs vehicle, listed as TAK
  hepatic expression of PPARy, CD36 and MOGAT1: significantly reduced; also recorded: inhibited
[4]; [6]
  Gpam expression in liver: significantly reduced
  Lfabp1 and Gyk1 expression in liver: not significant
  Srebf1 expression in liver: not significant
  liver markers for oxidative stress (Ucp2, Gss): lower levels
[4]; [7]
  liver markers for fibrosis (Tgfb1, Timp1): lower levels; also recorded: reduction
  liver pro-inflammatory markers (Ip10, Mcp1): lower levels; also recorded: reduction
[4]; [8]
  Fasn expression in liver: significant decrease
  phosphorylation of AMPK in liver: induced phosphorylation
[4]; HFD mice
  liver steatosis / lipid accumulation (H&E, Oil Red O): prevented
[4]; HFD mice, listed as TAK
  liver steatosis / lipid accumulation (H&E, Oil Red O): protected against; also recorded: suppressed
[4]; HFD mice, vs vehicle
  insulin resistance / sensitivity (ITT): protected against; also recorded: prevented insulin resistance
  glucose tolerance (GTT): prevented glucose intolerance
  fasting glucose: prevented the rise
[4]; [9]
  insulin resistance / sensitivity (ITT): insulin sensitive; also recorded: improved
  glucose tolerance (GTT): glucose tolerant; also recorded: improved
  body weight: significantly lower; also recorded: prevented a gain
  fasting glucose: lower
[4]; HFD mice, vs vehicle, listed as TAK-488
  body weight: lowering
[4]; HFD mice, 4 weeks post treatment, vs vehicle
  food intake (CLAMS): without a change
[4]; HFD mice, 4 weeks post treatment, vs vehicle, listed as TAK
  food intake (CLAMS): without a change; also recorded: without changing
[4]; HFD mice, 4 weeks post treatment, vs vehicle, listed as Takeda-488
  food intake (CLAMS): no difference
[4]; [10]
  epididymal white adipose tissue (eWAT): significant decrease
  inguinal white adipose tissue (iWAT): significant decrease
  peripheral fat accumulation / adipose mass: protected against
  serum ALT: significantly lower
  serum/blood free fatty acids (FFA): prevented
  liver triglycerides (TGs): prevented
  serum/blood glycerol: prevented
[4]; [11]
  peripheral fat accumulation / adipose mass: lowered
  serum TGs: significant decrease; also recorded: reduced
  serum cholesterol: significantly lower; also recorded: reduced
  serum/blood free fatty acids (FFA): significantly lower; also recorded: reduced
  liver triglycerides (TGs): significant decrease
  serum/blood glycerol: significantly lower
[4]; [12]
  peripheral fat accumulation / adipose mass: lowering
  serum/blood free fatty acids (FFA): lowering
  liver triglycerides (TGs): lowering
  serum/blood glycerol: lowering
[4]; [13]
  heat production (CLAMS): no differences
  respiratory exchange ratio (RER, CLAMS): no differences
[5]
  half-life in the blood: 4 h
[3]; KP 100 nM or TAK 3 nM, 150 µM palmitate and 150 µM oleate, wild-type hepatocytes, n=4
  TG accumulation in FFA loaded hepatocytes: substantially decreased

## YNANSFGLRF [ANA3]
KISS1R [1]
  IC50: 2.7 ± 0.7 nM

## YDWNSFGLRF [ANA12]
KISS1R [1]
  IC50: 29.1 ± 13.5 nM

## YNWNTFGLRF [ANA14]
KISS1R [1]
  IC50: 2.3 ± 1.6 nM

## Ac-YNK(Palm-γ-D)NSFGT[Tz]LRY-NH2 [Compound 4**, Decourt et al., 2016 numbering]
KISS1R [2]
  EC50: 2.1 nM

## YNWDSFGLRF [ANA13]
KISS1R [1]
  IC50: 140 ± 60.6 nM

## YNWNSYGLRF [ANA15]
KISS1R [1]
  IC50: 87.5 ± 30.7 nM

## Palm-γ-DYNWNSFG′P[Tz]LRY-NH2 [Compound 5**, Decourt et al., 2016 numbering]
KISS1R [2]
  EC50: 0.13 nM

## YNWNSFGLKF [ANA17]
KISS1R [1]
  IC50: 9.8 ± 2.6 nM

## YNWASFGLRF [ANA4]
KISS1R [1]
  IC50: 43.5 ± 15.5 nM
